Experimental data reported in ChEMBL document CHEMBL1938230, “6-Position optimization of tricyclic 4-quinolone-based inhibitors of glycogen synthase kinase-3β: discovery of nitrile derivatives with picomolar potency” (Bioorg Med Chem Lett, 2012).

Legend:
Assay type in all cases: cell-free
[1] = target: T1, Inhibitor of nuclear factor kappa-B kinase subunit alpha (Homo sapiens) (UniProt O15111); assay: Inhibition of human IKKalpha in HL-60 cells lysate assessed as reduction of labeling of acyl-phosphate ATP probe at 100 nM
T1 sequence (whole entry): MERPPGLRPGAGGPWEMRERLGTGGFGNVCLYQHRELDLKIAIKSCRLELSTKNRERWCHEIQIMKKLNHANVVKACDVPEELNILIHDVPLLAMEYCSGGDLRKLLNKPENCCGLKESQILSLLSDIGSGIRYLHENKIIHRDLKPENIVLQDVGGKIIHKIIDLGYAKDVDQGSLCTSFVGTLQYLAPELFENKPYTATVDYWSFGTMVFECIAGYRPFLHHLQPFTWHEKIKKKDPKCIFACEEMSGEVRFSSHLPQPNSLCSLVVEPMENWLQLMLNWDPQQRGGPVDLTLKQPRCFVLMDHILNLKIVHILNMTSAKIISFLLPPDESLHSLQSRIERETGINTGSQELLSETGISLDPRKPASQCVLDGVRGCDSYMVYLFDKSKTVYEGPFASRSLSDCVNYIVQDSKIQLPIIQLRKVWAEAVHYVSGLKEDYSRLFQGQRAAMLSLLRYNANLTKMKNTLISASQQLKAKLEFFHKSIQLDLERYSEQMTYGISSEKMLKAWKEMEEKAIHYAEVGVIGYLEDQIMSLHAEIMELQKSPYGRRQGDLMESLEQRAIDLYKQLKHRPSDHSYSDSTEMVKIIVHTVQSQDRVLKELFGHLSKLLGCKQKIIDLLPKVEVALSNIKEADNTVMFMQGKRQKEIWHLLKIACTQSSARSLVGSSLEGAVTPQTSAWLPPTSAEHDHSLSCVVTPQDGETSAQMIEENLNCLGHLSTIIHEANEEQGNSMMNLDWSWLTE

[2] = target: T2, Dual specificity mitogen-activated protein kinase kinase 6 (Homo sapiens) (UniProt P52564); assay: Inhibition of human MAP2K6 in HL-60 cells lysate assessed as reduction of labeling of acyl-phosphate ATP probe at 100 nM
T2 sequence (whole entry): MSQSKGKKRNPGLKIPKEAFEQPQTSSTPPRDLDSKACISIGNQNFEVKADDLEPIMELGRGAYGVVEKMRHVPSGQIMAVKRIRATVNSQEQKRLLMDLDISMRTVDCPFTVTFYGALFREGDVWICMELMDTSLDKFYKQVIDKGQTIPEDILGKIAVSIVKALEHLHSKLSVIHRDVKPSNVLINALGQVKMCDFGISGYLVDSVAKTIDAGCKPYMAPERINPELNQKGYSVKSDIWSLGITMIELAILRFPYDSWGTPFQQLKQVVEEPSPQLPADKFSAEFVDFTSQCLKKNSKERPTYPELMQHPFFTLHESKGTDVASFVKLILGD

[3] = target: T3, Inhibitor of nuclear factor kappa-B kinase subunit beta (Homo sapiens) (UniProt O14920); assay: Inhibition of human IKK-beta in HL-60 cells lysate assessed as reduction of labelling of acyl-phosphate ATP probe at 100 nM
T3 sequence (whole entry): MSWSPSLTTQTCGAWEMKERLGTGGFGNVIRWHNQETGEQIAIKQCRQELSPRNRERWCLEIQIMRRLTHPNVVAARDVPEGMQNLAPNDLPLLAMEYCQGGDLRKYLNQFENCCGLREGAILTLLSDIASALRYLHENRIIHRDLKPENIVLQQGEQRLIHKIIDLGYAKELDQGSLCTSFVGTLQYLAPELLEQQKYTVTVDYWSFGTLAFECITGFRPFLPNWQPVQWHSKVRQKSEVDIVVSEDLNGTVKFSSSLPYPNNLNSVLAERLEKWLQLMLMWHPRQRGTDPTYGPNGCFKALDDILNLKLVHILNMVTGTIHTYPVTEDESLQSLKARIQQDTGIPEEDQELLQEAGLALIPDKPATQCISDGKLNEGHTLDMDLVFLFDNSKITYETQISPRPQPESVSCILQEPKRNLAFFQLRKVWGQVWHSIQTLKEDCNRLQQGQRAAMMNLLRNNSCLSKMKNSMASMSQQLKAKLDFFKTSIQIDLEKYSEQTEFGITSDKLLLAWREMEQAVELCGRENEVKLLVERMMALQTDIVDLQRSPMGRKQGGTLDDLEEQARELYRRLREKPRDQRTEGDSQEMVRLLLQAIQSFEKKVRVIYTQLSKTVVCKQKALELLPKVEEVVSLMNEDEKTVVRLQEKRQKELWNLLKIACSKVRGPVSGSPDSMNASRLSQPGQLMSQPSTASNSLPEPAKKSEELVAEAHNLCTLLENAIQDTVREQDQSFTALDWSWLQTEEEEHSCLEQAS

[4] = target: Tyrosine-protein kinase Fgr (Homo sapiens) (UniProt P09769); assay: Inhibition of human FGR in HL-60 cells lysate assessed as reduction of labeling of acyl-phosphate ATP probe at 100 nM
Chain of Tyrosine-protein kinase Fgr (Homo sapiens) (P09769 2-529 limits assumed): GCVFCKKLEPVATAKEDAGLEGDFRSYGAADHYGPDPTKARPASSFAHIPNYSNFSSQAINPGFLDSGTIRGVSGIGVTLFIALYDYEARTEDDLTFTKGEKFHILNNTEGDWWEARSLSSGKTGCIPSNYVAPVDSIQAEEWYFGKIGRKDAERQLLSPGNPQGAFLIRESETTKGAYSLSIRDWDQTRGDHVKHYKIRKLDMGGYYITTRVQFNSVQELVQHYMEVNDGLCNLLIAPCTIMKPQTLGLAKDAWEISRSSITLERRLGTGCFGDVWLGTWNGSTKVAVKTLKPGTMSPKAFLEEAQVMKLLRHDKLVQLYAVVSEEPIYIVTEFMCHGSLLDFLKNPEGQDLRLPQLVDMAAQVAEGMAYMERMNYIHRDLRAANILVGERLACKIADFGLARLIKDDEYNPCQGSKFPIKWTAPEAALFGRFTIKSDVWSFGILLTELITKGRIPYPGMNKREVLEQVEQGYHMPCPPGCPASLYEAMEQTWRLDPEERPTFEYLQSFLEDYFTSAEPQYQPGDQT

Measured: inhibition

C[C@H]1COc2c(NCCCc3ccccn3)c(F)c(N)c3c(=O)c(C#N)cn1c23
< 35%: [1] | [2] | [3] | [4]

C[C@H]1COc2c(NCCCc3ccccn3)c(F)c(N)c3c(=O)c(C(=O)O)cn1c23
< 35%: [1] | [2] | [3] | [4]

C[C@H]1COc2c(NCCCn3cccn3)c(F)c(N)c3c(=O)c(C(=O)O)cn1c23
< 35%: [1] | [2] | [3] | [4]

C[C@H]1COc2c(NCCCn3cccn3)c(F)c(N)c3c(=O)c(C#N)cn1c23
< 35%: [1] | [2] | [3] | [4]
